# Laboratory results as given in patent US7989430B2, “Antibacterial agents” (priority 2005, dated 2011).
# Key:
# M. tuberculosis H37Rv [1] = conditions: Ferreras et al., Nature Chem. Biol. 2005, likely the free acid form; cited from earlier work
# M. tuberculosis H37Rv [2] = experiment: M. tuberculosis H37Rv MIC assay (whole-cell); assay type: cell-based, Mycobacterium tuberculosis
# [3] = Chemical stability on storage; conditions: salt form prepared in Example 1 vs free acid
# MbtA = MbtA (Mycobacterium tuberculosis, UniProt P71716); conditions: data not shown
# [4] = 50% aq TFA, 3 h
# MbtA, sequence (P71716 whole entry): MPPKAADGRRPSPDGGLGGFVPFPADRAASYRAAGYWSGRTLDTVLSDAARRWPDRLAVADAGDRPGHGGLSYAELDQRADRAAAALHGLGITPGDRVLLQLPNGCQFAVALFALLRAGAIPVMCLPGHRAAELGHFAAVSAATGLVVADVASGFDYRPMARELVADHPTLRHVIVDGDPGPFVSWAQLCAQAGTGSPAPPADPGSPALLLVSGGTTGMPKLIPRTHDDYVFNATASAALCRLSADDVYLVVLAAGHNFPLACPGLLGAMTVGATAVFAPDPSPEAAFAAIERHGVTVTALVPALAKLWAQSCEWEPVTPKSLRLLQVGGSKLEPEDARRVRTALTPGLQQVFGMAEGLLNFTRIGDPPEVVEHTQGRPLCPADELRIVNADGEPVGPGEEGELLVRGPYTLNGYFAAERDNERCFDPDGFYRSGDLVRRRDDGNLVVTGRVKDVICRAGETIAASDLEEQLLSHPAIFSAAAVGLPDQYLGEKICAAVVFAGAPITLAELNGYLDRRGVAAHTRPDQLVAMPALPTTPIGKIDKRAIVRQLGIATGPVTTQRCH
smiles,measurement,setting,value
Nc1ncnc2c1ncn2[C@@H]1O[C@H](COS(=O)(=O)NC(=O)c2ccc(O)c(O)c2)[C@@H](O)[C@H]1O,melting point,,> 190 °C (dec.)
"Nc1ncnc2c1ncn2[C@@H]1O[C@H](COS(=O)(=O)NC(=O)c2ccccc2O)[C@@H](O)[C@H]1O [Compound 34, 5′-O—(N-(2-hydroxybenzoyl)sulfamoyl)adenosine]",MIC50,M. tuberculosis H37Rv [1],2.2 µM
"CCN(CC)CC.Nc1ncnc2c1ncn2[C@@H]1O[C@H](COS(=O)(=O)NC(=O)c2ccccc2O)[C@@H](O)[C@H]1O [Example 1, 5′-O—(N-(2-Hydroxybenzoyl)sulfamoyl)-adenosine triethylammonium salt]",potency against M. tuberculosis H37Rv relative to the free acid,M. tuberculosis H37Rv [2]; salt form vs free acid,about 28 times
same,stability relative to the free acid,[3],significantly more stable
"CCN(CC)CC.Nc1ncnc2c1ncn2[C@H]1C[C@H](O)[C@@H](COS(=O)(=O)NC(=O)c2ccccc2O)O1 [Example 42, 2′-Deoxy-5′-O—[N-(2-hydroxybenzoyl)sulfamoyl]-adenosine triethylammonium salt]",activity in the in vitro enzyme assay,MbtA,potent activity
same,stability under acidic conditions,[4],unstable
same,activity in whole-cell assay of M. tuberculosis,M. tuberculosis H37Rv [2]; data not shown,potent activity
